Test results published in PubChem BioAssay AID248 (DTP/NCI, 2004).
Toxic doses and inconclusive results are not listed. Cut-off read from the data, not from the text of the source: active = T/C of 150% or more; inactive = T/C below 125%.

Test system: L1210 leukemia ip in BDF1 mice, survival T/C
Assay: NCI In Vivo Anticancer Drug Screen. Data for tumor model L1210 Leukemia (intraperitoneal) in B6D2F1 (BDF1) mice
Conditions: endpoint: mean survival time, higher = longer survival
In short: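 Each compound was tested against a transplantable tumor grown in mice. The endpoint was survival, with treated animals benchmarked against vehicle controls as a simple ratio.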

[1] = dose: 100.0 mg/kg/injection, schedule: Q04DX003 (ip), vehicle: saline with Tween-80
[2] = dose: 200.0 mg/kg/injection, schedule: Q04DX003 (ip), vehicle: saline with Tween-80
[3] = dose: 400.0 mg/kg/injection, schedule: Q04DX003 (ip), vehicle: saline with Tween-80
[4] = dose: 100.0 mg/kg/injection, schedule: Q04DX002 (ip), vehicle: Klucel (hydroxypropylcellulose) (HPC)
[5] = dose: 200.0 mg/kg/injection, schedule: Q04DX002 (ip), vehicle: Klucel (hydroxypropylcellulose) (HPC)
[6] = dose: 100.0 mg/kg/injection, schedule: Q01DX001 (ip), vehicle: saline
[7] = dose: 100.0 mg/kg/injection, schedule: Q01DX009 (ip), vehicle: saline
[8] = dose: 100.0 mg/kg/injection, schedule: Q04DX003 (ip), vehicle: saline
[9] = dose: 200.0 mg/kg/injection, schedule: Q01DX001 (ip), vehicle: saline
[10] = dose: 200.0 mg/kg/injection, schedule: Q04DX003 (ip), vehicle: saline
[11] = dose: 400.0 mg/kg/injection, schedule: Q01DX001 (ip), vehicle: saline
[12] = dose: 100.0 mg/kg/injection, schedule: Q01DX009 (ip), vehicle: Klucel (hydroxypropylcellulose) (HPC)
[13] = dose: 100.0 mg/kg/injection, schedule: Q04DX003 (ip), vehicle: Klucel (hydroxypropylcellulose) (HPC)
[14] = dose: 200.0 mg/kg/injection, schedule: Q01DX009 (ip), vehicle: Klucel (hydroxypropylcellulose) (HPC)
[15] = dose: 200.0 mg/kg/injection, schedule: Q04DX003 (ip), vehicle: Klucel (hydroxypropylcellulose) (HPC)
[16] = dose: 400.0 mg/kg/injection, schedule: Q01DX009 (ip), vehicle: Klucel (hydroxypropylcellulose) (HPC)
[17] = dose: 400.0 mg/kg/injection, schedule: Q04DX003 (ip), vehicle: Klucel (hydroxypropylcellulose) (HPC)

Measured: T/C

CCCCCCCCCCCCn1c(C)nc2ccccc21
inactive: dose: 2.4 mg/kg/injection, schedule: Q03HX024 (ip), vehicle: saline 94 % of control | dose: 3.6 mg/kg/injection, schedule: Q03HX024 (ip), vehicle: saline 91 % of control | dose: 5.0 mg/kg/injection, schedule: Q01DX001 (ip), vehicle: saline 104 % of control | dose: 5.0 mg/kg/injection, schedule: Q04DX003 (ip), vehicle: carboxymethylcellulose (CMC) 105 % of control | dose: 5.4 mg/kg/injection, schedule: Q03HX024 (ip), vehicle: saline 97 % of control | dose: 8.0 mg/kg/injection, schedule: Q03HX024 (ip), vehicle: saline 96 % of control | dose: 10.0 mg/kg/injection, schedule: Q01DX001 (ip), vehicle: saline 101 % of control | dose: 10.0 mg/kg/injection, schedule: Q04DX003 (ip), vehicle: carboxymethylcellulose (CMC) 106 % of control | dose: 12.0 mg/kg/injection, schedule: Q01DX009 (ip), vehicle: saline 116 % of control | dose: 12.0 mg/kg/injection, schedule: Q03HX024 (ip), vehicle: saline 104 % of control | dose: 18.0 mg/kg/injection, schedule: Q01DX009 (ip), vehicle: saline 118 % of control | dose: 20.0 mg/kg/injection, schedule: Q01DX001 (ip), vehicle: saline 104 % of control | dose: 20.0 mg/kg/injection, schedule: Q04DX003 (ip), vehicle: carboxymethylcellulose (CMC) 108 % of control | dose: 24.0 mg/kg/injection, schedule: Q01DX001 (ip), vehicle: saline 106 % of control | dose: 24.0 mg/kg/injection, schedule: Q04DX003 (ip), vehicle: saline 113 % of control | dose: 27.0 mg/kg/injection, schedule: Q01DX009 (ip), vehicle: saline 113 % of control | dose: 36.0 mg/kg/injection, schedule: Q01DX001 (ip), vehicle: saline 105 % of control | dose: 36.0 mg/kg/injection, schedule: Q04DX003 (ip), vehicle: saline 104 % of control | dose: 40.0 mg/kg/injection, schedule: Q01DX001 (ip), vehicle: saline 112 % of control

CNC(=O)Nc1ccncc1
inactive: [1] 96 % of control | [2] 102 % of control | [3] 91 % of control

Cn1cccc1/C=N/NC(N)=O
inactive: [4] 104 % of control | [5] 104 % of control | dose: 400.0 mg/kg/injection, schedule: Q04DX002 (ip), vehicle: Klucel (hydroxypropylcellulose) (HPC) 98 % of control

CC1CCC2(O)C3(C)CC4(O)OC2(C1O)C1(O)C3(O)C(OC(=O)c2ccc[nH]2)C(O)(C(C)C)C41C (stereo not given)
inactive: dose: 0.25 mg/kg/injection, schedule: Q01DX001 (ip), vehicle: carboxymethylcellulose (CMC) 93 % of control

CCS(=O)(=O)c1ccc(C)cc1
inactive: [6] 95 % of control | [7] 89 % of control | [8] 109 % of control | [9] 93 % of control | dose: 200.0 mg/kg/injection, schedule: Q01DX009 (ip), vehicle: saline 95 % of control | [10] 95 % of control | [11] 96 % of control | dose: 400.0 mg/kg/injection, schedule: Q01DX009 (ip), vehicle: saline 87 % of control | dose: 400.0 mg/kg/injection, schedule: Q04DX003 (ip), vehicle: saline 98 % of control

S=P(S)(c1ccccc1)c1ccccc1
inactive: [1] 91 % of control | [2] 94 % of control | [3] 100 % of control

CCC(=O)OC1CCC2C3CCC4=CC(=O)CCC4(C)C3CCC12C (stereo not given)
inactive: dose: 100.0 mg/kg/injection, schedule: Q01DX001 (ip), vehicle: carboxymethylcellulose (CMC) 107 % of control | dose: 200.0 mg/kg/injection, schedule: Q01DX001 (ip), vehicle: carboxymethylcellulose (CMC) 96 % of control | dose: 400.0 mg/kg/injection, schedule: Q01DX001 (ip), vehicle: carboxymethylcellulose (CMC) 96 % of control

CC(CC(=O)c1ccc(F)cc1)N1CCOCC1 (stereo not given)
inactive: [6] 92 % of control | [9] 90 % of control

NC1=NN(c2c(Cl)cc(Cl)cc2Cl)C(=O)C1
inactive: [6] 96 % of control | [9] 94 % of control | [11] 100 % of control

Nc1cc(Cl)c(Cl)cc1S(=O)(=O)O
inactive: [12] 101 % of control | [13] 102 % of control | [14] 98 % of control | [15] 98 % of control | [16] 92 % of control | [17] 96 % of control

O=C(O)c1cccc2c1-c1ccccc1C(Br)C2Br (stereo not given)
inactive: dose: 200.0 mg/kg/injection, schedule: Q04DX002 (ip), vehicle: saline with Tween-80 101 % of control

COc1c(OC)c2c3c(c(-c4c(C)cc5c(C(C)C)c(OC)c(OC)c6c5c4OC6OC)c(C)cc3c1C(C)C)OC2OC (stereo not given)
inactive: [12] 102 % of control | [14] 102 % of control | [16] 107 % of control

CC1CCOP(=O)(Sc2ccccc2)O1 (stereo not given)
inactive: dose: 75.0 mg/kg/injection, schedule: Q04DX002 (ip), vehicle: Klucel (hydroxypropylcellulose) (HPC) 102 % of control | [4] 106 % of control | dose: 150.0 mg/kg/injection, schedule: Q04DX002 (ip), vehicle: Klucel (hydroxypropylcellulose) (HPC) 113 % of control | [5] 109 % of control

CC(C)=CCC/C(C)=C/COC(=O)C(CC=C(C)C)CCN1CCN(C)CC1 (stereo not given)
inactive: [13] 104 % of control | [15] 93 % of control | [17] 104 % of control

O=c1[nH]c2c(cnn2-c2ccccc2)c(=O)n1OS(=O)(=O)c1ccccc1
inactive: dose: 50.0 mg/kg/injection, schedule: Q01DX001 (ip), vehicle: saline 103 % of control | [6] 103 % of control | [9] 100 % of control | [11] 97 % of control

CCC1CC(O)c2c(O)c3c(c(O)c2C1O)C(=O)c1cccc(O)c1C3=O (stereo not given) (tested in a mixture with another compound)
inactive: dose: 0.25 mg/kg/injection, schedule: Q01DX015 (ip), vehicle: carboxymethylcellulose (CMC) 101 % of control | dose: 0.5 mg/kg/injection, schedule: Q01DX015 (ip), vehicle: carboxymethylcellulose (CMC) 101 % of control | dose: 3.12 mg/kg/injection, schedule: Q01DX001 (ip), vehicle: carboxymethylcellulose (CMC) 93 % of control

C=CC(=O)N(CCN1CCOCC1)C(C)C
inactive: dose: 100.0 mg/kg/injection, schedule: Q04DX002 (ip), vehicle: saline 94 % of control | dose: 200.0 mg/kg/injection, schedule: Q04DX002 (ip), vehicle: saline 97 % of control | dose: 400.0 mg/kg/injection, schedule: Q04DX002 (ip), vehicle: saline 94 % of control

COC(C#N)(Cc1ccccc1)Cc1ccccc1
inactive: dose: 75.0 mg/kg/injection, schedule: Q01DX001 (ip), vehicle: other 92 % of control | dose: 150.0 mg/kg/injection, schedule: Q01DX001 (ip), vehicle: other 95 % of control

C=C(Cl)CSC(=S)N(CC)CC
inactive: dose: 50.0 mg/kg/injection, schedule: Q01DX009 (ip), vehicle: saline sonified 94 % of control | dose: 100.0 mg/kg/injection, schedule: Q01DX009 (ip), vehicle: saline sonified 94 % of control | [8] 105 % of control | dose: 200.0 mg/kg/injection, schedule: Q01DX009 (ip), vehicle: saline sonified 105 % of control | [10] 102 % of control

NC(CCCNc1nc(O)c(-c2ccccc2)c(=O)[nH]1)C(=O)O (stereo not given)
inactive: dose: 75.0 mg/kg/injection, schedule: Q01DX001 (ip), vehicle: saline 104 % of control | dose: 150.0 mg/kg/injection, schedule: Q01DX001 (ip), vehicle: saline 102 % of control | dose: 300.0 mg/kg/injection, schedule: Q01DX001 (ip), vehicle: saline 102 % of control

CCC(=O)NC1(C(=O)O)CCCc2ccccc21 (stereo not given)
inactive: [13] 110 % of control | [15] 96 % of control

CC1(C)N=C(N)N=C(N)N1c1ccc(C(=O)Nc2ccc(S(=O)(=O)F)cc2)cc1
inactive: dose: 0.8 mg/kg/injection, schedule: Q01DX009 (ip), vehicle: saline 101 % of control | dose: 4.0 mg/kg/injection, schedule: Q01DX009 (ip), vehicle: saline 100 % of control | dose: 20.0 mg/kg/injection, schedule: Q01DX009 (ip), vehicle: saline 95 % of control | [7] 97 % of control | dose: 500.0 mg/kg/injection, schedule: Q01DX009 (ip), vehicle: saline 101 % of control
